Data: ChEMBL document CHEMBL4371007, “Biased Ligands of G Protein-Coupled Receptors (GPCRs): Structure-Functional Selectivity Relationships (SFSRs) and Therapeutic Potential” (J Med Chem, 2018)
Where a SMILES comes first, the peptide text is derived from it. Bridges are numbered along the chain shown (N, C = ends).

Tests used:
[1] = target: T1, Adenosine receptor A1 (Homo sapiens) (UniProt P30542)
T1 sequence (whole entry): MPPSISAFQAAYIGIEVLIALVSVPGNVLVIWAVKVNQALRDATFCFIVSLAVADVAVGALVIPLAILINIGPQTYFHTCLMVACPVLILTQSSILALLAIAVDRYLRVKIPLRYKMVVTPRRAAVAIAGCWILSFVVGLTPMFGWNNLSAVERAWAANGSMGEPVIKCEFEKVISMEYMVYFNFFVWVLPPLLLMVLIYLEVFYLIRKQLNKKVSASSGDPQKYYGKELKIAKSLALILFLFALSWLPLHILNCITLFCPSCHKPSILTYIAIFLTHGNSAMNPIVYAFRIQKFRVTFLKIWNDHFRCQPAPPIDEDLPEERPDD

[2] = target: T1, Adenosine receptor A1 (Homo sapiens); assay: Agonist activity at adenosine A1 receptor (unknown origin) expressed in FlpIn-CHO cells assessed as increase in ERK1/2 phosphorylation; format: cell-based
[3] = target: T2, Endothelin-1 receptor (Homo sapiens) (UniProt P25101); assay: Agonist activity at ETA receptor (unknown origin) assessed as increase in beta-arrestin recruitment
T2 sequence (whole entry): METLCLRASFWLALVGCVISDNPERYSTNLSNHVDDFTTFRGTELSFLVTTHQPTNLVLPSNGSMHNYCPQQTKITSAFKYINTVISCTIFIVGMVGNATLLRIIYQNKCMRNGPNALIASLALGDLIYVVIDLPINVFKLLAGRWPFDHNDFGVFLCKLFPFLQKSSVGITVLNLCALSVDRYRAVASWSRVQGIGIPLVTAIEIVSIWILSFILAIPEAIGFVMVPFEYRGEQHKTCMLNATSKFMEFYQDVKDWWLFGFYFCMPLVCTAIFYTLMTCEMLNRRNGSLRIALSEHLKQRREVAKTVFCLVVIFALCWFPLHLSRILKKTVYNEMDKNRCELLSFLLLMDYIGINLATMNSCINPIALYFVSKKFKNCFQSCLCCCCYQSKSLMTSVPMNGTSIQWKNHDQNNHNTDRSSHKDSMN

[4] = target: T2, Endothelin-1 receptor (Homo sapiens); assay: Ratio of compound agonist effect for ETA receptor (unknown origin) assessed as increase in beta-arrestin recruitment to compound agonist effect for ETA receptor (unknown origin) by saphenous vein contraction assay
[5] = target: T2, Endothelin-1 receptor (Homo sapiens); assay: Agonist activity at ETA receptor (unknown origin) by saphenous vein contraction assay
[6] = target: T3, Glucagon-like peptide 1 receptor (Homo sapiens, UniProt P43220); assay: Agonist activity at Rluc8 fused human GLP1 receptor expressed in HEK293 cells assessed co-expressing GFP-tagged beta-arrestin2 assessed as increase in beta-arrestin2 recruitment after 20 to 40 mins by BRET assay; format: cell-based
T3 sequence (P43220 whole entry, the tested form may be a part): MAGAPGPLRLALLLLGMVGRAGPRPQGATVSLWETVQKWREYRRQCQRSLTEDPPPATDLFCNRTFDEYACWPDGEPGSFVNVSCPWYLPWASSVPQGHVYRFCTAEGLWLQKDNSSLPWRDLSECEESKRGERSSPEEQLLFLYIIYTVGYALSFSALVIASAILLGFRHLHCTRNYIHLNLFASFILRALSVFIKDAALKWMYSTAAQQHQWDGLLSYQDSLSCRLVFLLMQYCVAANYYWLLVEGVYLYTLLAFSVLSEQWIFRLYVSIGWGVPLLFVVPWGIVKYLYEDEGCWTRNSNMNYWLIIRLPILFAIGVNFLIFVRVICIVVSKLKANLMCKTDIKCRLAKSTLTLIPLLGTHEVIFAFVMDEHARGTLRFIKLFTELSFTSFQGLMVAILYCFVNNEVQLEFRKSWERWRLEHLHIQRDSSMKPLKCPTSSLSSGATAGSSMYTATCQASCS

[7] = target: T3, Glucagon-like peptide 1 receptor; assay: Agonist activity at Rluc8 fused human GLP1 receptor expressed in HEK293 cells assessed co-expressing GFP-tagged beta-arrestin1 assessed as increase in beta-arrestin1 recruitment after 20 to 40 mins by BRET assay; format: cell-based
[8] = target: T3, Glucagon-like peptide 1 receptor; assay: Agonist activity at human GLP1 receptor expressed in HEK293 cells assessed as increase in cAMP accumulation after 24 hrs by luciferase reporter gene assay; format: functional, cell-based
[9] = target: T4, Type-1 angiotensin II receptor (Homo sapiens, UniProt P30556); assay: Binding affinity to human AT1 receptor
T4 sequence (P30556 whole entry): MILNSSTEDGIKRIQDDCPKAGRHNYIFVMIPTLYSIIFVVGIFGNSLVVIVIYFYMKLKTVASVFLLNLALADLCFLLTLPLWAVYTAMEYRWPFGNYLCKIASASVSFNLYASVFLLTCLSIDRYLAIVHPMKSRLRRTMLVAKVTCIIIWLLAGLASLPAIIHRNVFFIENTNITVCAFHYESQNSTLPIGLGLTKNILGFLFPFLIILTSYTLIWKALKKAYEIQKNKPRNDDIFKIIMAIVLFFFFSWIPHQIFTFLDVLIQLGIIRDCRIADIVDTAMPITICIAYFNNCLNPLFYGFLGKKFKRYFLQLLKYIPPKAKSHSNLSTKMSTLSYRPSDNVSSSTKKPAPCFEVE

[10] = target: T2, Endothelin-1 receptor (Homo sapiens)
[11] = target: T5, Endothelin receptor type B (Homo sapiens) (UniProt P24530)
T5 sequence (whole entry): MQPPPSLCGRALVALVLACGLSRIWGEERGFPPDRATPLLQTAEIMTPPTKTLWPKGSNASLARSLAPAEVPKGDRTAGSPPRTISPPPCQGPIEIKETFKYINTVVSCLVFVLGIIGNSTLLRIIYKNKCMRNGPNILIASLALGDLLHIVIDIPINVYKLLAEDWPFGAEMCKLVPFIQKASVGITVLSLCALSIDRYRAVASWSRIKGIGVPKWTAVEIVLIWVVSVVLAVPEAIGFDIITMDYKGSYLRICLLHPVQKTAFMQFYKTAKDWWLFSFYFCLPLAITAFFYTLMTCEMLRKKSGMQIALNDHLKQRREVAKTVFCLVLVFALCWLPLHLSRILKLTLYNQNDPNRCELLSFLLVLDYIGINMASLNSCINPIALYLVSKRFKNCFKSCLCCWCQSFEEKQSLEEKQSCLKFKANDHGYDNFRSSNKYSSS

D(2) dopamine receptor [12] = target: T6, D(2) dopamine receptor (Homo sapiens, UniProt P14416); assay: Agonist activity at dopamine D2 receptor (unknown origin) by cAMP accumulation assay relative to control; format: functional
T6 sequence (P14416 whole entry): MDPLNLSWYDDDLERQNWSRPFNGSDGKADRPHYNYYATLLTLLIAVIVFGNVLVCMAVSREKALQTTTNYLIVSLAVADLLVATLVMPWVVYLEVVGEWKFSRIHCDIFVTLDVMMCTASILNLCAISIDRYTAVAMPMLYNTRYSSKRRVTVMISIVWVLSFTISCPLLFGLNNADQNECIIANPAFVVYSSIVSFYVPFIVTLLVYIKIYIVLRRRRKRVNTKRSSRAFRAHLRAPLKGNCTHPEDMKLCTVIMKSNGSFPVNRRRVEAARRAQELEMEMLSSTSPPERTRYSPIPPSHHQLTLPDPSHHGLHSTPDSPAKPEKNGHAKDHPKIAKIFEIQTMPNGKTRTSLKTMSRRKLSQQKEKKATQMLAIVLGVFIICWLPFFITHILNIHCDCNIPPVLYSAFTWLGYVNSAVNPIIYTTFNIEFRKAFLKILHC

D(2) dopamine receptor [13] = target: T6, D(2) dopamine receptor; assay: Agonist activity at dopamine D2 receptor (unknown origin) assessed as increase in beta-arrestin-2 recruitment relative to control
[14] = target: 5-hydroxytryptamine receptor 1B (Homo sapiens) (UniProt P28222)
Sequence of 5-hydroxytryptamine receptor 1B (Homo sapiens) (P28222 whole entry): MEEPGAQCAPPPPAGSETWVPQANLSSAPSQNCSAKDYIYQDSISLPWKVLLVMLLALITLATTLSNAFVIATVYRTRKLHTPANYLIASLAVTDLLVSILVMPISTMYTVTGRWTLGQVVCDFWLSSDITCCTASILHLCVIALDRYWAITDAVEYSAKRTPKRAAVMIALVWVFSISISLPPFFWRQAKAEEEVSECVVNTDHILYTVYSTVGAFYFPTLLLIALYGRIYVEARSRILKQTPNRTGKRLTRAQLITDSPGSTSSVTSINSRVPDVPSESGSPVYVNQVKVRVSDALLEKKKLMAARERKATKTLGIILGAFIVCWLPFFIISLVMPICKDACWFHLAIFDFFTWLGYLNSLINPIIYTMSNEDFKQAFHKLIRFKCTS

[15] = target: 5-hydroxytryptamine receptor 2B (Homo sapiens) (UniProt P41595)
Sequence of 5-hydroxytryptamine receptor 2B (Homo sapiens) (P41595 whole entry): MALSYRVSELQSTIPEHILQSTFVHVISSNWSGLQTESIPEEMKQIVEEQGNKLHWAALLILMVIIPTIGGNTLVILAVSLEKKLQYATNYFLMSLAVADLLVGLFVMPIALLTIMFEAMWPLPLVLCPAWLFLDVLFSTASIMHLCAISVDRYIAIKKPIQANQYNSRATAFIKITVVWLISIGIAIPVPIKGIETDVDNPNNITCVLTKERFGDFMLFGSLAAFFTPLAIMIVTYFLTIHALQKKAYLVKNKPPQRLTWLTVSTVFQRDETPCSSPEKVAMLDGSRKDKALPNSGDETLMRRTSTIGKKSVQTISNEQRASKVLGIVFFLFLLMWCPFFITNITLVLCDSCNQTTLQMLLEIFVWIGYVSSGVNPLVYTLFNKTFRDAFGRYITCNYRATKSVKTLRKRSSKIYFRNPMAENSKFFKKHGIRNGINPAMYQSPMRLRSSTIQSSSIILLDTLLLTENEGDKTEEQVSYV

[16] = target: 5-hydroxytryptamine receptor 1B (Homo sapiens) (UniProt P28222); remark: listed apart in the source
[17] = target: 5-hydroxytryptamine receptor 2B (Homo sapiens) (UniProt P41595); remark: listed apart in the source
[18] = target: T7, C-X-C chemokine receptor type 3 (Homo sapiens) (UniProt P49682); assay: Negative allosteric modulation activity at CXCR3 (unknown origin) expressed in HEK293 cell membranes assessed as increase in [35S]-GTPgammaS binding after 1 hr by scintillation counting assay; format: functional
T7 sequence (whole entry): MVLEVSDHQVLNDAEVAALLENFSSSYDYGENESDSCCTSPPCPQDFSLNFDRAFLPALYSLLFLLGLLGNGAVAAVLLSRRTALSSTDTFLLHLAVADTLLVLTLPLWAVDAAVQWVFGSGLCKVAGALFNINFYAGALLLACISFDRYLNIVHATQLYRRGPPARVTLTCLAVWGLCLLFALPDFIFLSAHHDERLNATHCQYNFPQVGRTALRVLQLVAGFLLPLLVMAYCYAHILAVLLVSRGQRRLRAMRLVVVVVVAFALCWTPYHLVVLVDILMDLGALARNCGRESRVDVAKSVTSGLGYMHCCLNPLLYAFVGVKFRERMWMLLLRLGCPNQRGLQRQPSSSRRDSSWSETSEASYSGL

[19] = target: T7, C-X-C chemokine receptor type 3 (Homo sapiens); assay: Ratio of pKb for CXCR3 (unknown origin) expressed in HEK293 cell membranes assessed as increase in [35S]-GTPgammaS binding to pKb for prolink-tagged CXCR3 (unknown origin) expressed in HEK293 cells harboring beta-galactosidase enzyme assessed as inhibition of CXCL11-induced beta-arrestin2 recruitment; format: functional
[20] = target: T7, C-X-C chemokine receptor type 3 (Homo sapiens); assay: Negative allosteric modulation activity at prolink-tagged CXCR3 (unknown origin) expressed in HEK293 cells harboring beta-galactosidase enzyme assessed as inhibition of CXCL11-induced beta-arrestin2 recruitment after 4 hrs by chemiluminescence assay; format: cell-based

How did the log(Tau/KA) [1] turn out when `C[C@H](Cc1ccccc1)Nc1ncnc2c1ncn2[C@@H]1O[C@H](CO)[C@@H](O)[C@H]1O` was run?
Its log(Tau/KA) is 8.96.

What about the log(Tau/KA) [2] of the same compound?
Its log(Tau/KA) is 9.5.

How did the log(Tau/KA) [3] turn out when `CC[C@H](C)[C@H](NC(=O)[C@H](CC(=O)O)NC(=O)[C@H](CC(C)C)NC(=O)[C@H](Cc1cnc[nH]1)NC(=O)[C@@H]1CSSC[C@H](N)C(=O)N[C@@H](CO)C(=O)N[C@H]2CSSC[C@H](NC(=O)[C@H](CCC(=O)O)NC(=O)[C@H](CCCCN)NC(=O)[C@H](CC(=O)O)NC(=O)[C@H](CC(C)C)NC(=O)[C@H](Cc3c[nH]c4ccccc34)NC(=O)[C@H](CO)NC(=O)[C@H](CO)NC2=O)C(=O)N[C@@H](C(C)C)C(=O)N[C@@H](Cc2ccc(O)cc2)C(=O)N[C@@H](Cc2ccccc2)C(=O)N1)C(=O)N[C@H](C(=O)N[C@@H](Cc1c[nH]c2ccccc12)C(=O)O)[C@@H](C)CC` (H-CSCSSWLDKECVYFCHLDIIW-OH; disulfide 1-15, 3-11) was run?
Its log(Tau/KA) is 8.67.

What about the Ratio [4] of the same compound?
The Ratio was 3.1.

What about the log(Tau/KA) [5] of the same compound?
The log(Tau/KA) was 8.26.

What does the source list for `CC[C@H](C)[C@H](NC(=O)[C@H](Cc1ccccc1)NC(=O)[C@H](CCC(=O)O)NC(=O)[C@H]1CCC[C@@H]1NC(=O)[C@H](C)NC(=O)[C@H](C)NC(=O)[C@H](CCC(N)=O)NC(=O)[C@H]1CCC[C@@H]1NC(=O)[C@H](CCC(=O)O)NC(=O)[C@H](CC(C)C)NC(=O)[C@H](Cc1ccc(O)cc1)NC(=O)[C@H]1CCC[C@@H]1NC(=O)[C@H](CO)NC(=O)[C@@H](NC(=O)[C@H](CC(=O)O)NC(=O)[C@H](CO)NC(=O)[C@@H](NC(=O)[C@H](Cc1ccccc1)NC(=O)[C@@H](NC(=O)CNC(=O)[C@H](CCC(=O)O)NC(=O)[C@H](C)NC(=O)[C@@H](N)Cc1cnc[nH]1)[C@@H](C)O)[C@@H](C)O)C(C)C)C(=O)N[C@@H](C)C(=O)N[C@@H](Cc1c[nH]c2ccccc12)C(=O)N[C@@H](CC(C)C)C(=O)N[C@H](C(=O)N[C@@H](CCCCN)C(=O)NCC(=O)N[C@@H](CCCNC(=N)N)C(=O)NCC(N)=O)C(C)C`?
EC50 [6]: 10 nM; EC50 [7]: 20 nM; EC50 [8]: 1 nM

H-DRVYVHPF-OH [[Val5] - ANGIOTENSIN II] was tested. Which Kd [9] did it give?
Its Kd is 1.6 nM.

Which results are given for `COc1ccccc1Oc1c(NS(=O)(=O)c2ccc(C(C)(C)C)cc2)nc(-c2ncccn2)nc1OCCO`?
pKb [10]: 8.01; pKb [11]: 6.15

How did the Kd [9] turn out when `CC[C@H](C)[C@H](NC(=O)[C@@H]1CCCN1C(=O)[C@H](Cc1cnc[nH]1)NC(=O)[C@@H](NC(=O)[C@@H](NC(=O)[C@@H](NC(=O)[C@H](CCCNC(=N)N)NC(=O)CNC)C(C)C)[C@@H](C)CC)C(C)C)C(=O)O` was run?
Its Kd is 300 nM.

With `CC[C@H](C)[C@H](NC(=O)[C@H](CC(=O)O)NC(=O)[C@H](CC(C)C)NC(=O)[C@H](Cc1cnc[nH]1)NC(=O)[C@@H]1CSSC[C@H](N)C(=O)N[C@H]([C@H](C)O)C(=O)N[C@H]2CSSC[C@H](NC(=O)[C@H](CCC(=O)O)NC(=O)[C@H](CCCCN)NC(=O)[C@H](CC(=O)O)NC(=O)[C@H](CCCCN)NC(=O)[C@H](Cc3ccc(O)cc3)NC(=O)[C@H]([C@@H](C)O)NC(=O)[C@H](Cc3ccccc3)NC2=O)C(=O)N[C@@H](C(C)C)C(=O)N[C@@H](Cc2ccc(O)cc2)C(=O)N[C@@H](Cc2ccc(O)cc2)C(=O)N1)C(=O)N[C@H](C(=O)N[C@@H](Cc1ccc(O)cc1)C(=O)O)[C@@H](C)CC` as the compound, how does the log(Tau/KA) [3] read?
Its log(Tau/KA) is 7.11.

And the Ratio [4]?
The Ratio was 4.

What about the log(Tau/KA) [5] of the same compound?
The log(Tau/KA) was 6.8.

Which results are given for `CC[C@H](C)[C@H](NC(=O)[C@H](Cc1ccccc1)NC(=O)[C@H](CCC(=O)O)NC(=O)[C@H]1CCC[C@@H]1NC(=O)[C@H](C)NC(=O)[C@H](C)NC(=O)[C@H](CCC(N)=O)NC(=O)[C@H]1CCC[C@@H]1NC(=O)[C@H](CCC(=O)O)NC(=O)[C@H](CC(C)C)NC(=O)[C@H](Cc1ccc(O)cc1)NC(=O)[C@H]1CCC[C@@H]1NC(=O)[C@H](CO)NC(=O)[C@@H](NC(=O)[C@H](CC(=O)O)NC(=O)[C@H](CO)NC(=O)[C@@H](NC(=O)[C@H](Cc1ccccc1)NC(=O)[C@@H](NC(=O)CNC(=O)[C@H](CCC(=O)O)NC(=O)[C@H](C)NC(=O)[C@@H](N)Cc1cnc[nH]1)[C@@H](C)O)[C@@H](C)O)C(C)C)C(=O)N[C@H]1CCC[C@@H]1C(=O)N[C@@H](Cc1c[nH]c2ccccc12)C(=O)N[C@@H](CC(C)C)C(=O)N[C@H](C(=O)N[C@@H](CCCCN)C(=O)NCC(=O)N[C@@H](CCCNC(=N)N)C(=O)NCC(N)=O)C(C)C`?
EC50 [6]: 10 nM; EC50 [7]: 31.6 nM; EC50 [8]: 3.98 nM

Which Activity (D(2) dopamine receptor [12]) does the source give for `CN(CCCCNC(=O)c1cc2ccccc2[nH]1)[C@@H]1Cc2cccc3[nH]c(=O)n(c23)C1` here?
The Activity was 96%.

And the Activity (D(2) dopamine receptor [13])?
The Activity was 66%.

What does the source list for `CN1C[C@H](C(=O)N[C@]2(C)O[C@@]3(O)[C@@H]4CCCN4C(=O)[C@H](Cc4ccccc4)N3C2=O)C=C2c3cccc4[nH]cc(c34)C[C@H]21`?
log(Tau/KA) [14]: 7.82; log(Tau/KA) [15]: 7.05; log(Tau/KA) [16]: 8.53; log(Tau/KA) [17]: 5.95

With `CCOc1ccc(-n2c(C(C)N(CC3CCN(C)CC3)C(=O)CCCOCCCCF)nc3ncccc3c2=O)cc1` (configuration not stated) as the compound, how does the pKb [18] read?
Its pKb is 8.73.

And the Ratio [19]?
Its Ratio is 187.

And the pKb [20]?
Its pKb is 6.45.
